In patent US5182276A, “Nootropic agent” (Santen Pharmaceutical Co., Ltd., priority 1989, dated 1993):
Counter-ions that a name gives are not always drawn.

Experiments:
[1] = Test of Hypoxia-Inhibiting Effect (survival time under nitrogen gas); assay type: in vivo, ICR mice; conditions: 100 mg/kg oral
Experimental: In this test, groups (9 to 10 mice each) of ICR mice were employed. The compound to be tested was suspended in a 0.5% aqueous methyl cellulose solution and was orally administered. 60 Minutes after the administration,each mouse was placed in a transparent container (volume 500m μ) having an exhaust hole and N, gas was supplied to the container at a rate of 5μ/min. The time (survival time in sec.) ,elapsed from the initiation of the nitrogen gas supply until the cessation of breathing of each mouse was determined. As the compounds to be tested, there was used (+)-3,4-dihydro-2-(5-methoxy-2- (3-(N-methyl-N-[2-[(3,4]propoxy]phenyl]-4-methyl-3-oxo-2H-1,4-benzothiazine fumarate (hereinafter referred to as "Compound A") which is a representative compound of the present invention. The results obtained are listed in the following Table 1.

[2] = tested on: cerebral ischemia / energy metabolic substances in the brain; assay: Test of Cerebral Energy Metabolism (bilateral common carotid artery ligation, SHR); assay type: in vivo, male SHR's (rat); conditions: for Hippocampus E.C. (energy charge): **: P < 0.01 vs. Pathema Control (0.628 ± 0.026); for Cerebral Cortex E.C. (energy charge): **: P < 0.01 vs. Pathema Control (0.631 ± 0.0243); for Striatum E.C. (energy charge): **: P < 0.01 vs. Pathema Control (0.679 ± 0.032)
Experimental: 24-Week-old male SHR's were fixed on the back thereof under with 1.5% halothane anesthetic (70% N,O, 30% O2) and the neck thereof was subjected to a median incision. The cerebral ischemia was caused by immediately ligating bilateral common carotid artery with a silk fiber just before the recovery from the anesthetic state. 3.5 Hours after the ligation, the animals were sacrificed by irradiating them with microwaves (5 KW, 1.5 second). The brain tissues were collected and divided into cerebral cortex, hippocampus and striatum. The brain tissues were homogenized in a 0.6N aqueous perchloric acid solution and centrifuged at 3,000 rpm for 20 minutes. The resulting supernatant was used as the sample for detecting the energy metabolic substances. In the measurement, ATP-Uv test (available from Sigma Co., Ltd.) was used as ATP and lactate-UV test (available from Boeringer Mannheim Yamanouchi Co., Ltd.) was used as lactate. The detection of ADP and AMP was performed according to the method of Bergmeyer (Klin. Chem. Klin. Biochem., 1975, 13, p. 507). The energy charge (hereinafter referred to as "E.C.") which served as an indication of the degree of energy sufficiency due to high energy phosphoric acid of adenine nucleotide was calculated from the following relation according to the method of Atkinson (J. Biol. Chem., 1967, 242, p. 3329):
E.C.=(ATP+1/2ADP)/(ATP+ADP+AMP)
In the test, the compound to be tested was suspended in a 0.5% aqueous solution of methyl cellulose and was administered, through an oral route, to the animals to be tested 30 minutes before the ligation of the both common carotid arteries.

[3] = Water Maze-Learning Test after cerebral ischemia; assay type: in vivo, male SHR's (rat); conditions: for Swimming Time, 3rd Session: **: P < 0.01 vs. Pathema Control (114.9 ± 16.93); for Swimming Time, 2nd Session: **: P < 0.01 vs. Pathema Control (130.0 ± 17.13); for Swimming Time, 1st Session: **: P < 0.01 vs. Pathema Control (167.5 ± 9.59)
Experimental: (§1) 25-Week-old male SHR's were fixed on the back thereof under anesthetization with 1.5% halothane anesthetic (70% N,O, 30% O2) and the neck thereof was subjected to a median incision. The cerebral ischemia was caused by immediately ligating the both common carotid arteries with,a silk fiber after a vinyl tube was attached to the artery and just before the recovery from the anesthetic state. 3.5 Hours after the ligation, the silk fiber was cut to again initiate the blood circulation. In the test, the compound to be tested was suspended in a 0.5% aqueous solution of methyl cellulose and was initially administered, through oral route, to the animals to be tested 30 minutes before the ligation of the common artery and thereafter it was continuously administered every day over 16 days through oral route provided that the compound was not administered during the behavioral pharmacologic tests of the animals and was administered after completion of the tests.
This water maze-learning test was initiated on 7th day after the cerebral ischemia condition was formed. A cylindrical water tank having a diameter of 1.2 m was filled with black water and the temperature thereof was maintained at 20±1° C. A platform which was submerged in the water to a depth of 2 cm and could not be externally seen through the water (hereinafter referred to as "platform") was placed at the central point existing between the center of the water tank and the wall thereof.
The water maze-learning test was performed once a day (one session) which was continuously performed over three days (three sessions). In the first session (1st day), the animal was allowed to freely swim in the water tank which was free of platforms, then a platform was positioned in the tank and the animal was allowed to learn the presence of the platform of refuge by placing the animal thereon for 30 seconds. The animal was released through four predetermined points on the wall of the water tank over four times and the total time (swimming time (sec)) required until the animal got on the platform over four trials was determined. After the four trials, the animal was again allowed to stand on the platform for […] and thus the first session was completed. In this respect, the maximum total time required over four trials was determined to be 180 seconds. […] The 2nd and 3rd sessions were performed under the same conditions used in the first session except that the test animal was not allowed to freely swim in the water tank prior to the initiation of the test. The spatial positions of the water tank and the platform in the laboratory were not changed at all during the water maze-learning test term.

[4] = Trial Passive Avoidance Training after cerebral ischemia; assay type: in vivo, male SHR's (rat); conditions: for Reaction Latency: cut-off 300 s, **: P < 0.01 vs. Pathema Control (146.7 ± 30.42)
Experimental: as §1
As a testing apparatus, there was used a training box comprising a bright room whose floor was formed from grid, a dark room capable of applying footshock through the floor made of grid and a port opening equipped with a guillotine door disposed at the boundary of these rooms through which the animal could freely move between these two rooms. First, as an acquired trial, the rat was put in the bright room for 30 seconds while the guillotine door was closed, then the guillotine door was opened and the time required for the rat to enter into the dark room through the guillotine door was determined. […] After 24 hours, the rat was again put in the bright room, 30 seconds thereafter the guillotine door was opened and the time required for the animal to confirm the entrance and to enter into the dark room (the reaction latency) was determined. […]

[5] = tested on: Choline acetyltransferase (ChAT); assay: Activity of Choline acetyltransferase (ChAT) in the striatum after cerebral ischemia; assay type: in vivo, male SHR's (rat)
Experimental: as §1
After completion of the learning test, the rat was sacrificed by decapitation and the activity of ChAT which had been believed to be involved in the memory function of animals was determined. The brain tissues were homogenized in 0.05% Triton X-100 containing-phosphate buffer solution (pH 7.4) and the resulting supernatant was used as a sample for determining the ChAT activity. The activity of ChAT was determined according to the method of Fonnum (J. Neurochem., 1975,24, p. 407).

Acute toxicity, oral = conditions: rat, in vivo, rats
Description: The acute toxicity thereof was investigated by orally administering the compounds of Formula (I) to rats and they were confirmed to be highly safe.
Compound A was orally administered to rats to determine the acute toxicity thereof.

SMILES: COc1ccc(OCCCN(C)CCOc2ccc3c(c2)OCO3)c(C2Sc3ccccc3N(C)C2=O)c1 (single isomer, unassigned; (+)) [Compound A, (+)-3,4-dihydro-2-(5-methoxy-2-(3-(N-methyl-N-[2-[(3,4]propoxy]phenyl]-4-methyl-3-oxo-2H-1,4-benzothiazine fumarate]
- effect on survival time under low oxygen supply (in words) [1]: significant effect of extending survival time
- Survival Time ([1]; 60 min before N2, average ± standard error, **: P < 0.01 vs. Control (25.8 ± 0.61)): 35.7 ± 1.28 s
- Hippocampus E.C. (energy charge) ([2]; 10 mg/kg oral): 0.706 ± 0.025
- Cerebral Cortex E.C. (energy charge) ([2]; 10 mg/kg oral): 0.705 ± 0.0237
- Striatum E.C. (energy charge) ([2]; 10 mg/kg oral): 0.703 ± 0.025
- reduction in the E.C. due to the ischemia (in words) ([2]; 10 mg/kg oral, cerebrum cortex and hippocampus): significantly improved
- changes in the ATP and the lactate due to the ischemia (in words) ([2]; 25 mg/kg oral): significantly inhibited
- effect on the ratio lactate/pyruvate (in words) ([2]; 25 mg/kg oral): substantially improved
- ATP ([2]; 25 mg/kg oral, 30 min before 3.5 h ligation, average ± standard error, **: P < 0.01 vs. Pathema Control (10.0 ± 1.03)): 16.9 ± 0.87 n mole/mg Protein
- Lactate/Pyruvate ([2]; 25 mg/kg oral, 30 min before 3.5 h ligation, average ± standard error, **: P < 0.01 vs. Pathema Control (40.3 ± 6.78)): 19.1 ± 2.71
- Lactate ([2]; 25 mg/kg oral, 30 min before 3.5 h ligation, average ± standard error, **: P < 0.01 vs. Pathema Control (128.6 ± 15.84)): 62.3 ± 10.20 n mole/mg Protein
- Hippocampus E.C. (energy charge) ([2]; 30 mg/kg oral): 0.762 ± 0.022
- Cerebral Cortex E.C. (energy charge) ([2]; 30 mg/kg oral): 0.764 ± 0.0078
- Striatum E.C. (energy charge) ([2]; 30 mg/kg oral): 0.768 ± 0.0063
- reduction in the E.C. due to the ischemia (in words) ([2]; 30 mg/kg oral, cerebral cortex, hippocampus and striatum): completely inhibited
- Swimming Time, 3rd Session ([3]; 10 mg/kg oral): 40.9 ± 11.82 s
- Swimming Time, 2nd Session ([3]; 10 mg/kg oral): 61.4 ± 15.06 s
- Swimming Time, 1st Session ([3]; 10 mg/kg oral): 105.8 ± 16.50 s
- Swimming Time, 3rd Session ([3]; 30 mg/kg oral): 34.5 ± 3.60 s
- Swimming Time, 2nd Session ([3]; 30 mg/kg oral): 59.6 ± 9.60 s
- Swimming Time, 1st Session ([3]; 30 mg/kg oral): 97.2 ± 18.85 s
- time required to reach the base (in words) ([3]; vs. pathema control group): significantly shorter
- Reaction Latency ([4]; 10 mg/kg oral): 271.1 ± 19.21 s
- Reaction Latency ([4]; 30 mg/kg oral): 280.8 ± 19.25 s
- average reaction latency (in words) ([4]; vs. pathema control group): significantly longer
- ChAT activity in the striatum ([5]; 10 mg/kg oral, *: P < 0.05 vs. Pathema Control (3.43 ± 0.097)): 3.84 ± 0.102 n mol/mg Protein
- ChAT activity in the striatum ([5]; 30 mg/kg oral, **: P < 0.01 vs. Pathema Control (3.43 ± 0.097)): 3.94 ± 0.201 n mol/mg Protein
- lowering of the activity of ChAT in the striatum due to the cerebral ischemia (in words) ([5]; rat, in vivo): inhibited
- LD50 (Acute toxicity, oral): 293 mg/kg
